Laboratory results published in paper PMC7071059, “Targeting Receptor Tyrosine Kinase VEGFR-2 in Hepatocellular Cancer: Rational Design, Synthesis and Biological Evaluation of 1,2-Disubstituted Benzimidazoles” (Molecules, 2020).

Experiments:
PDGFR-β = PDGFR-β (Homo sapiens, UniProt P09619); assay: Biochemical kinase assay
Method: (§1) This assay was carried out using the VEGFR-2 kinase enzyme system or FGFR-1 kinase enzyme system and Kinase-Glo Plus luminescence kinase (Promega) kits according to the manufacturers´ protocols. This assay evaluated the activity of kinase by measuring the amount of ATP remaining in solution after a kinase reaction. The luminescent signal from the assay was related to the quantity of ATP available, which was inversely proportional to the amount of kinase activity. […] Subsequently, serial dilutions were carried out, and 5 µL of the dilution was added to a 50 µL reaction. The enzymatic reactions were performed at 30 °C for 45 minutes. […] After the enzymatic reaction, 50 µL of Kinase-Glo Plus Luminescence kinase assay solution was added to each reaction, and the plates were incubated for 15 minutes at room temperature. The luminescence signal was measured using a Tecan–spark multimode microplate reader. The difference between luminescence intensities in the absence of Kinase (Lut) and in the presence of Kinase (Luc) was defined as 100% activity (Lut − Luc). Using a luminescence signal (Lu) in the presence of the compound, % activity was calculated as: % activity = {(Lut − Lu)/(Lut − Luc)}×100%, where Lu = the luminescence intensity in the presence of the compound.

HepG2 cells [1] = assay: Analysis of cell cycle distribution, flow cytometry of propidium iodide-stained nuclei; format: cell-based, human; conditions: HepG2, 2 µM, 48 h
Method: Based on the promising antiproliferative activity and antiangiogenic activity of series 17, compound 17a was further assayed for its effect on the cell cycle distribution by flow cytometric analyses of propidium iodide-stained nuclei at 2 µM. Cell cycle parameters were compared for HepG2 cells with DMSO as control and after treatment with 17a and incubation for 48 h, and the results were depicted in Figure 8.
After treatment with test compounds for 48 h, cells (10^5 cells) were collected by trypsinization and washed twice with ice-cold PBS (pH 7.4). Cells were resuspended in two milliliters of 60% ice-cold ethanol and incubated at 4 °C for 1 h for fixation. Fixed cells were washed twice again with PBS (pH 7.4) and resuspended in 1 mL of PBS containing 50 µg/mL RNAase A and 10 µg/mL propidium iodide (PI). After 20 min of incubation in dark at 37 °C, cells were analyzed for DNA contents using flow cytometry analysis using an FL2 (λex/em 535/617 nm) signal detector (ACEA Novocyte™ flowcytometer, ACEA Biosciences Inc., San Diego, CA, USA). For each sample, 12,000 events were acquired. The cell cycle distribution was calculated using ACEA NovoExpress™ software (ACEA Biosciences Inc., San Diego, CA, USA).

HepG2 cells [2] = assay: Apoptosis assay, Annexin V-FITC/PI flow cytometry; format: cell-based, human; conditions: 48 h; for early apoptotic phase (Q4): control 0.80%; for late apoptotic phase (Q2): control 4.59%
Excerpt: Moreover, in order to examine the effect of compound 17a on cell apoptosis (programed cell death), the morphological markers of apoptosis of the HepG2 cell line were examined before and after treatment with 17a. This assay is based on the fact that cells performing apoptosis translocate their phosphatidylserine (PS) phospholipid to the cell surface, which, in turn, can be easily detected by staining with a fluorescent conjugate of annexin V, followed by flow cytometry analysis. Concurrently, the HepG2 cells were stained with propidium iodide (PI), which enters only cells with damaged plasma membranes. This stain allows the discrimination between early apoptotic cells (positive for PS, but negative for PI) from late apoptotic and necrotic cells (positive for both PS and PI).
Apoptosis and necrosis cell populations were determined using an Annexin V-FITC apoptosis detection kit (Abcam Inc., Cambridge Science Park, Cambridge, UK) coupled with 2 fluorescent channels flowcytometry. After treatment with test compounds for 48 h, cells (10^5 cells) were collected by trypsinization and washed twice with ice-cold PBS (pH 7.4). Then, cells were incubated in the dark with 0.5 ml of Annexin V-FITC/PI solution for 30 min in the dark at room temperature, according to the manufacturer’s protocol. After staining, cells were injected via ACEA Novocyte™ flowcytometer (ACEA Biosciences Inc., San Diego, CA, USA) and analyzed for FITC and PI fluorescent signals using FL1 and FL2 signal detectors, respectively (λex/em 488/530 nm for FITC and λex/em 535/617 nm for PI). For each sample, 12,000 events were acquired, and positive FITC and/or PI cells were quantified by quadrant analysis and calculated using ACEA NovoExpress™ software (ACEA Biosciences Inc., San Diego, CA, USA).

FGFR-1 = FGFR-1 (Homo sapiens, UniProt P11362); assay: Biochemical kinase assay (Kinase-Glo Plus luminescence)
Chain of FGFR-1 (P11362 22-822): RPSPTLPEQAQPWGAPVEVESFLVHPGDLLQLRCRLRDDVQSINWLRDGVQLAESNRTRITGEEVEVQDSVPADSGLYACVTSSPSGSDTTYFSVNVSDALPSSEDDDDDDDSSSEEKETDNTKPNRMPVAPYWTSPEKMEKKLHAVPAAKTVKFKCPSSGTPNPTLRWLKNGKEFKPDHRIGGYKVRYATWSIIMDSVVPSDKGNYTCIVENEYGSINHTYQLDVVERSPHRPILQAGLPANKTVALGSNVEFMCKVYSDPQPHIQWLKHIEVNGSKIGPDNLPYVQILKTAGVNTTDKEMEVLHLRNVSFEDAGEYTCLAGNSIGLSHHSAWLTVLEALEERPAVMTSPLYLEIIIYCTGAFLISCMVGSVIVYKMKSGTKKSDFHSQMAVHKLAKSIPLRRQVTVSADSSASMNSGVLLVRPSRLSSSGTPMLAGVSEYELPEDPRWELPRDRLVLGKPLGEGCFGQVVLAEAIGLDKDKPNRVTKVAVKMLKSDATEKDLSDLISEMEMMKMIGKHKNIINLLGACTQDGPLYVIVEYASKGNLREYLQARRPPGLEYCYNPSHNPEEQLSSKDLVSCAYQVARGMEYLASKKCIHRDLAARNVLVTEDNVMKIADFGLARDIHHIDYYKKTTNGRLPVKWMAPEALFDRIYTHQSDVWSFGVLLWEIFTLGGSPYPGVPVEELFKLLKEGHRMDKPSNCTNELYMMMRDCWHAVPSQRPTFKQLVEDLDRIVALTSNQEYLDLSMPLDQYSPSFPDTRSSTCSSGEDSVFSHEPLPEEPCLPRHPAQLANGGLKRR
Method: as §1

Chain of PDGFR-β (P09619 33-1106): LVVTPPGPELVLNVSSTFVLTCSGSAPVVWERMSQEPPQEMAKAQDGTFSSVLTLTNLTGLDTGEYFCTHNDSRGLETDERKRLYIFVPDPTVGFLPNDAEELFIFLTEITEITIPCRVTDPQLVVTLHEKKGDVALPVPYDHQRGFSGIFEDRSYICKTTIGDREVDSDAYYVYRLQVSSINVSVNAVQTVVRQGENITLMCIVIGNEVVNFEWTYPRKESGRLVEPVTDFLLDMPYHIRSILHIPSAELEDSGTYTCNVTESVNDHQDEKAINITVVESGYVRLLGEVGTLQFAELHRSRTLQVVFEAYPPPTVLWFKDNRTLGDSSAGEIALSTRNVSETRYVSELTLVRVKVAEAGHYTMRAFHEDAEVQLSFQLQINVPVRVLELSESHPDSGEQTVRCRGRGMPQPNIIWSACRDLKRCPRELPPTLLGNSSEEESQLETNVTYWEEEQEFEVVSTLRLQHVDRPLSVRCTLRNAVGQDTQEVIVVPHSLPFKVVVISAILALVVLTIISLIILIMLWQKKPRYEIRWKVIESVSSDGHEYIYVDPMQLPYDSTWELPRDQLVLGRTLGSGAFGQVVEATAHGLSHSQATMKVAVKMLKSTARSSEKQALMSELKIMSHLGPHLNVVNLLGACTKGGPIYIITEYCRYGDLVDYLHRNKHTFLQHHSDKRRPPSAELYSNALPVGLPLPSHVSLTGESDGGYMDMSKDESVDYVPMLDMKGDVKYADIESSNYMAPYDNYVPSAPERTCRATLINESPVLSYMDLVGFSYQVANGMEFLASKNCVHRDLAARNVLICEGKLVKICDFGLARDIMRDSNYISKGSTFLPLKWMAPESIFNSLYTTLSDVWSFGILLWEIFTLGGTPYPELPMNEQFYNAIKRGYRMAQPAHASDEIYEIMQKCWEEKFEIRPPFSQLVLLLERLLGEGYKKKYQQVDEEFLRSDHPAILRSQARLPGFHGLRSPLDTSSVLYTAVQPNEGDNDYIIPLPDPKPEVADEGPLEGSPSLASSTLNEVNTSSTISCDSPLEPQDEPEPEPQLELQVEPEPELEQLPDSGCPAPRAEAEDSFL

## CC(C)c1nc2ccccc2n1CC(=O)N/N=C/c1cccc(OCc2ccccc2)c1 [Compound 17a, (E)-N′-(3-(Benzyloxy)benzylidene)-2-(2-isopropyl-1H-benzo[d]imidazol-1-yl)acetohydrazide]
PDGFR-β
  IC50: 50 ± 2 nM
HepG2 cells [1]
  Freq S: 26.96%
  effect on the HepG2 cell cycle: arrests the cell cycle at the G2/M phase
HepG2 cells [1]; control 13.43%
  percent of cells accumulated in the G2 phase (Freq G2): 25.86%
HepG2 cells [1]; control 51.34%
  percent of cell distribution in the G1 phase (Freq G1): 46.96%
HepG2 cells [2]; HepG2, 2 μM
  early apoptotic phase (Q4): 2.90%
  late apoptotic phase (Q2): 8.89%
HepG2 cells [2]; HepG2, 5 μM
  early apoptotic phase (Q4): 6.32%
  late apoptotic phase (Q2): 9.53%
FGFR-1
  IC50: 110 ± 4 nM
